Experimental data as given in the NIST ThermoML archive (doi:10.1016/j.jct.2015.11.012).
Numbers after ± are expanded uncertainties.

Assays:
[1] = xn = mol fraction of the nth substance listed; details: 100 kPa, Liquid; for viscosity: Capillary tube (Ostwald / Ubbelohde) method; for speed of sound: Frequency=2 MHz, Linear variable-path acoustic interferometer; for mass density: Vibrating tube method
[2] = 100 kPa, Liquid; for viscosity: Capillary tube (Ostwald / Ubbelohde) method; for speed of sound: Frequency=2 MHz, Linear variable-path acoustic interferometer; for mass density: Vibrating tube method

For `Nc1cccc(Cl)c1` [3-chlorobenzenamine] + OCCCl, the viscosity ([1]; 303.15 K, x1 = 1) was 4.255 ± 1 mPa·s, the speed of sound ([1]; 303.15 K, x1 = 1) was 1517.5 ± 9.3 m/s and the mass density ([1]; 303.15 K, x1 = 1) was 1205.32 ± 4 kg/m3. It also gave a viscosity ([1]; 308.15 K, x1 = 1) of 3.842 ± 1 mPa·s, a speed of sound ([1]; 308.15 K, x1 = 1) of 1501.2 ± 9.2 m/s and a mass density ([1]; 308.15 K, x1 = 1) of 1200.75 ± 4 kg/m3. For the same molecule, the viscosity ([1]; 313.15 K, x1 = 1) was 3.43 ± 1 mPa·s, the speed of sound ([1]; 313.15 K, x1 = 1) was 1480.3 ± 9 m/s and the mass density ([1]; 313.15 K, x1 = 1) was 1196.02 ± 4 kg/m3. The viscosity ([1]; 318.15 K, x1 = 1) was 3.022 ± 1 mPa·s, the speed of sound ([1]; 318.15 K, x1 = 1) was 1464.8 ± 8.9 m/s and the mass density ([1]; 318.15 K, x1 = 1) was 1191.25 ± 4 kg/m3.
Molecule `NCCO` [2-aminoethan-1-ol] + Nc1cccc(Cl)c1 has a viscosity ([1]; 303.15 K, x2 = 0) of 14.42 ± 1 mPa·s, a speed of sound ([1]; 303.15 K, x2 = 0) of 1703.1 ± 10 m/s and a mass density ([1]; 303.15 K, x2 = 0) of 1008.72 ± 4 kg/m3. It also gave a viscosity ([1]; 308.15 K, x2 = 0) of 11.71 ± 1 mPa·s, a speed of sound ([1]; 308.15 K, x2 = 0) of 1685.8 ± 10 m/s and a mass density ([1]; 308.15 K, x2 = 0) of 1004.65 ± 4 kg/m3. For the same molecule, the viscosity ([1]; 313.15 K, x2 = 0) was 9.564 ± 1 mPa·s, the speed of sound ([1]; 313.15 K, x2 = 0) was 1671.2 ± 10 m/s and the mass density ([1]; 313.15 K, x2 = 0) was 1000.74 ± 4 kg/m3. It also gave a viscosity ([1]; 318.15 K, x2 = 0) of 7.558 ± 1 mPa·s, a speed of sound ([1]; 318.15 K, x2 = 0) of 1653.2 ± 10 m/s and a mass density ([1]; 318.15 K, x2 = 0) of 996.04 ± 4 kg/m3.
`NCCO` [2-aminoethan-1-ol] showed a viscosity ([2]; 303.15 K) of 14.42 ± 1 mPa·s, a speed of sound ([2]; 303.15 K) of 1703.1 ± 10 m/s and a mass density ([2]; 303.15 K) of 1008.72 ± 4 kg/m3. For the same molecule, the viscosity ([2]; 308.15 K) was 11.71 ± 1 mPa·s, the speed of sound ([2]; 308.15 K) was 1685.8 ± 10 m/s and the mass density ([2]; 308.15 K) was 1004.65 ± 4 kg/m3. It also gave a viscosity ([2]; 313.15 K) of 9.564 ± 1 mPa·s, a speed of sound ([2]; 313.15 K) of 1671.2 ± 10 m/s and a mass density ([2]; 313.15 K) of 1000.74 ± 4 kg/m3. It also gave a viscosity ([2]; 318.15 K) of 7.558 ± 1 mPa·s, a speed of sound ([2]; 318.15 K) of 1653.2 ± 10 m/s and a mass density ([2]; 318.15 K) of 996.04 ± 4 kg/m3.
For `OCCc1ccccc1` [2-phenylethanol], the viscosity ([2]; 303.15 K) was 9.045 ± 1 mPa·s, the speed of sound ([2]; 303.15 K) was 1508.4 ± 9.2 m/s and the mass density ([2]; 303.15 K) was 1012.34 ± 4 kg/m3. The viscosity ([2]; 308.15 K) was 7.193 ± 1 mPa·s, the speed of sound ([2]; 308.15 K) was 1490.8 ± 9.1 m/s and the mass density ([2]; 308.15 K) was 1008.63 ± 4 kg/m3. The viscosity ([2]; 313.15 K) was 6.085 ± 1 mPa·s, the speed of sound ([2]; 313.15 K) was 1470.6 ± 9 m/s and the mass density ([2]; 313.15 K) was 1004.84 ± 4 kg/m3. The viscosity ([2]; 318.15 K) was 4.984 ± 1 mPa·s, the speed of sound ([2]; 318.15 K) was 1456.4 ± 8.9 m/s and the mass density ([2]; 318.15 K) was 1000.94 ± 4 kg/m3.
`OCCCl` [1-chloro-2-hydroxyethane] gave a viscosity ([2]; 303.15 K) of 2.578 ± 1 mPa·s, a speed of sound ([2]; 303.15 K) of 1342.8 ± 8.2 m/s and a mass density ([2]; 303.15 K) of 1192.12 ± 4 kg/m3. The viscosity ([2]; 308.15 K) was 2.259 ± 1 mPa·s, the speed of sound ([2]; 308.15 K) was 1328.5 ± 8.1 m/s and the mass density ([2]; 308.15 K) was 1186.63 ± 4 kg/m3. It also gave a viscosity ([2]; 313.15 K) of 1.852 mPa·s, a speed of sound ([2]; 313.15 K) of 1315.5 ± 8 m/s and a mass density ([2]; 313.15 K) of 1178.05 ± 4 kg/m3. The viscosity ([2]; 318.15 K) was 1.564 mPa·s, the speed of sound ([2]; 318.15 K) was 1301.2 ± 7.9 m/s and the mass density ([2]; 318.15 K) was 1170.87 ± 4 kg/m3.
For `OCCc1ccccc1` [2-phenylethanol] + Nc1cccc(Cl)c1, the viscosity ([1]; 303.15 K, x2 = 0) was 9.045 ± 1 mPa·s, the speed of sound ([1]; 303.15 K, x2 = 0) was 1508.4 ± 9.2 m/s and the mass density ([1]; 303.15 K, x2 = 0) was 1012.34 ± 4 kg/m3. For the same molecule, the viscosity ([1]; 308.15 K, x2 = 0) was 7.193 ± 1 mPa·s, the speed of sound ([1]; 308.15 K, x2 = 0) was 1490.8 ± 9.1 m/s and the mass density ([1]; 308.15 K, x2 = 0) was 1008.63 ± 4 kg/m3. It also gave a viscosity ([1]; 313.15 K, x2 = 0) of 6.085 ± 1 mPa·s, a speed of sound ([1]; 313.15 K, x2 = 0) of 1470.6 ± 9 m/s and a mass density ([1]; 313.15 K, x2 = 0) of 1004.84 ± 4 kg/m3. It also gave a viscosity ([1]; 318.15 K, x2 = 0) of 4.984 ± 1 mPa·s, a speed of sound ([1]; 318.15 K, x2 = 0) of 1456.4 ± 8.9 m/s and a mass density ([1]; 318.15 K, x2 = 0) of 1000.94 ± 4 kg/m3.
For `Nc1cccc(Cl)c1` [3-chlorobenzenamine], the viscosity ([2]; 303.15 K) was 4.255 ± 1 mPa·s, the speed of sound ([2]; 303.15 K) was 1517.5 ± 9.3 m/s and the mass density ([2]; 303.15 K) was 1205.32 ± 4 kg/m3. For the same molecule, the viscosity ([2]; 308.15 K) was 3.842 ± 1 mPa·s, the speed of sound ([2]; 308.15 K) was 1501.2 ± 9.2 m/s and the mass density ([2]; 308.15 K) was 1200.75 ± 4 kg/m3. For the same molecule, the viscosity ([2]; 313.15 K) was 3.43 ± 1 mPa·s, the speed of sound ([2]; 313.15 K) was 1480.3 ± 9 m/s and the mass density ([2]; 313.15 K) was 1196.02 ± 4 kg/m3. The viscosity ([2]; 318.15 K) was 3.022 ± 1 mPa·s, the speed of sound ([2]; 318.15 K) was 1464.8 ± 8.9 m/s and the mass density ([2]; 318.15 K) was 1191.25 ± 4 kg/m3.
